Values quoted from earlier work in US10279004B2, “Methods and compositions for enhancing or maintaining fertility” (Quality IP Holdings, LLC, priority 2016, dated 2019).

Experiments:
hGH = details: for effect on hGH: other amino acids, literature
[1] = subcutaneous injection of 0.06 IU in hGH deficient subjects

N=C(N)NCCC[C@H](N)C(=O)O [arginine]
elevation of serum hGH levels (hGH; 30 g in males): 8.6 fold | increase in hGH levels (hGH; intravenous infusion of 183 mg/kg body weight in females): > 20 fold

N[C@@H](Cc1c[nH]cn1)C(=O)O [histidine]
effect on hGH (hGH): marked increases in hGH

NCCCC[C@H](N)C(=O)O [lysine]
effect on hGH (hGH): marked increases in hGH

CSCC[C@H](N)C(=O)O [methionine]
effect on hGH (hGH): marked increases in hGH

NCCC[C@H](N)C(=O)O [ornithine]
effect on hGH (hGH): marked increases in hGH

N[C@@H](Cc1ccccc1)C(=O)O [phenylalanine]
effect on hGH (hGH): marked increases in hGH

hGH: human growth hormone, available in injectable forms
mean level of hGH reached [1]: 0.4 ng/mL | probability of clinical pregnancy (administration during ovarian stimulation phase of IVF cycles): increase the probability of clinical pregnancy | body composition in hGH-deficient adults (within months of hGH treatment): gains in lean body mass, skin thickness, and muscle mass are observed
